Here are results for 1 compound from patent US20240325326A1, “METHOD OF TREATING PULMONARY FIBROSIS BY TARGETING GLYCOGEN UTILIZATION” (University of Kentucky Research Foundation, priority 2023, published 2024).

“Also recorded” adds a separate entry of the source.

In this assay the test system is diseased human lung fibroblasts (DHLF). In words: Fibrosis-related gene expression (Bio-rad Prime PCR Fibrosis gene panel) in human lung fibroblasts treated for two days with a laforin inhibitor. The assay is classed as cell-based. As to conditions: NHLF or DHLF derived from idiopathic pulmonary fibrosis patients; treated two days vs vehicle control; mRNA; n=3 samples per condition; FIG. 14. On the procedure: Normal human lung fibroblasts (NHLF) or diseased human lung fibroblasts (DHLF) derived from idiopathic pulmonary fibrosis patients were treated for two days with a laforin inhibitor (or vehicle control) before harvesting mRNA and assessing gene expression. Samples were run on Bio-rad Prime PCR Fibrosis gene panel plates with n=3 samples per condition. *p<0.05, ***p<0.001 two-tailed student's t-test.
Normal human lung fibroblasts (NHLF) or diseased human lung fibroblasts (DHLF) derived from idiopathic pulmonary fibrosis patients were treated for two days with a laforin inhibitor (or vehicle control). […] Following treatment, mRNA was harvested from the cells and gene expression was assessed.

Turning to `O=C(Nc1ccc(OCc2ccccc2)c(Cl)c1)C(=O)Nc1ccccc1NC(=O)C(c1ccccc1)S(=O)(=O)O` (stereo not shown) [L319-21-M50], the fibrosis-related gene expression result is given as “disease-specific expression patterns being rescued by laforin inhibition; also recorded: decreases fibrosis-related gene expression in diseased human lung fibroblasts”.
